In paper PMC11855827, “High-Throughput Screening of Five Compound Libraries for Anthelmintic Activity and Toxicity Leads to the Discovery of Two Flavonoid Compounds” (International Journal of Molecular Sciences, 2025):
Like-named read-outs stand apart in the source and are kept apart here.

Test system: C. elegans
Assay: microbe, parasite or virus in culture
Conditions: Caenorhabditis elegans
[1] = 0 h, read-out: Percentage of motility inhibition 0 h, Table S2, C. elegans SS assay, 110 μM, 0 h, averages of 4 data points
[2] = 24 h, read-out: Percentage of motility inhibition 24 h, Table S2, C. elegans SS assay, 110 μM, 24 h, averages of 4 data points
[3] = 0 h, read-out: Percentage of motility inhibition 0 h
[4] = 24 h, read-out: Percentage of motility inhibition 24 h

| SMILES | inhibition at 110 µM [1] [%] | inhibition at 110 µM [2] [%] | inhibition at 110 µM [3] [%] | inhibition at 110 µM [4] [%] |
| --- | --- | --- | --- | --- |
| C[C@H](CC(=O)C[C@@H](C)[C@H]1C[C@H](O)[C@@]2(C)C3=C(C(=O)C[C@]12C)[C@@]1(C)CCC(=O)C(C)(C)[C@@H]1C[C@@H]3O)C(=O)O [Ganoderic acid A] | 15 | 6 |  |  |
| CC(CC(=O)C[C@@H](C)[C@H]1CC(=O)[C@@]2(C)C3=C(C(=O)C[C@]12C)[C@@]1(C)CC[C@H](O)C(C)(C)[C@@H]1C[C@@H]3O)C(=O)O (stereo partly drawn) [Ganoderic acid B] | 0 | 20 |  |  |
| C/C(=C\CC[C@@H](C)[C@H]1CC[C@@]2(C)C3=C(CC[C@]12C)[C@@]1(C)CCC(=O)C(C)(C)[C@@H]1CC3=O)C(=O)O [Ganoderic acid DM] |  |  | 6 | 1 |
| CC(CC(=O)C[C@@H](C)[C@H]1CC(=O)[C@@]2(C)C3=C(C(=O)C[C@]12C)[C@@]1(C)CCC(=O)C(C)(C)[C@@H]1C[C@@H]3O)C(=O)O (stereo partly drawn) [Ganoderic acid D] | 0 | 21 |  |  |
| CC(=O)O[C@@H]1C(=O)C2=C(C(=O)C[C@H]3C(C)(C)C(=O)CC[C@]23C)[C@]2(C)C(=O)C[C@H]([C@H](C)CC(=O)CC(C)C(=O)O)[C@@]12C (stereo partly drawn) [Ganoderic acid F] | 14 | 2 |  |  |
| CC(CC(=O)C[C@@H](C)[C@H]1CC(=O)[C@@]2(C)C3=C(C(=O)[C@@H](O)[C@]12C)[C@@]1(C)CC[C@H](O)C(C)(C)[C@@H]1C[C@@H]3O)C(=O)O (stereo partly drawn) [Ganoderic acid G] | 0 | 3 |  |  |
| C/C(=C\CC[C@@H](C)[C@H]1CC[C@@]2(C)C3=CC[C@H]4C(C)(C)[C@@H](O)CC[C@]4(C)C3=CC[C@]12C)CO [Ganoderol B] | 5 | 35 |  |  |
| C=C(C)[C@@H](CC=C(C)C)C[C@@]12C[C@@H](CC=C(C)C)C(C)(C)[C@@](CC=C(C)C)(C(=O)C(C(=O)c3ccc(O)c(O)c3)=C1O)C2=O [Garcinol] | 8 | 3 |  |  |
| COc1ccc(-c2cc(=O)c3c(O)c(OC)c(OC)c(OC)c3o2)cc1 [Gardenin B] | 6 | 0 |  |  |
| COC(=O)C1=CO[C@@H](O[C@@H]2O[C@H](CO)[C@@H](O)[C@H](O)[C@H]2O)[C@H]2[C@@H]1C=C[C@@]2(O)CO [Gardenoside] |  |  | 0 | 8 |
| OCc1ccc(O[C@@H]2O[C@H](CO)[C@@H](O)[C@H](O)[C@H]2O)cc1 [Gastrodin] |  |  | 4 | 8 |
| COc1c(N2CCNC(C)C2)c(F)cc2c(=O)c(C(=O)O)cn(C3CC3)c12 (stereo not drawn) [Gatifloxaci n] | 0 | 0 |  |  |
| C=C[C@]12CN(C)[C@@H]3[C@H]4CO[C@H](C[C@H]41)[C@]1(C(=O)Nc4ccccc41)[C@@H]32 [Gelsemi ne] | 0 | 0 |  |  |
| COC(=O)C1=CO[C@@H](O)[C@@H]2C(CO)=CC[C@H]12 [Genipin] | 0 | 0 |  |  |
| COC(=O)C1=CO[C@@H](O[C@@H]2O[C@H](CO)[C@@H](O)[C@H](O)[C@H]2O)[C@@H]2C(CO)=CC[C@H]12 [Geniposide] | 0 | 0 |  |  |
| O=C(O)C1=CO[C@@H](O[C@@H]2O[C@H](CO)[C@@H](O)[C@H](O)[C@H]2O)[C@@H]2C(CO)=CC[C@H]12 [Geniposidic acid] | 0 | 3 |  |  |
| O=c1c(-c2ccc(O)cc2)coc2cc(O)cc(O)c12 [Genistein] | 5 | 2 |  |  |
| O=c1c(-c2ccc(O)cc2)coc2cc(O[C@@H]3O[C@H](CO)[C@@H](O)[C@H](O)[C@H]3O)cc(O)c12 [Genistin] | 29 | 19 |  |  |

| SMILES | inhibition at 110 µM [1] [%] | inhibition at 110 µM [2] [%] | inhibition at 110 µM [3] [%] | inhibition at 110 µM [4] [%] |
| --- | --- | --- | --- | --- |
| COc1cc(O)c2c(=O)cc(-c3ccc(O)cc3)oc2c1 [Genkwanin] | 34 | 4 |  |  |
| C=C[C@@H]1C2=CCOC(=O)C2=CO[C@H]1O[C@@H]1O[C@H](CO)[C@@H](O)[C@H](O)[C@H]1O [Gentiopicroside] | 0 | 19 |  |  |
| CC(C)=CCC/C(C)=C/CO [Geraniol] | 0 | 3 |  |  |
| C=C1C[C@]23C[C@@]1(O)CC[C@H]2[C@@]12C=C[C@H](O)[C@@](C)(C(=O)O1)[C@H]2[C@@H]3C(=O)O [Gibberellic acid] | 17 | 22 |  |  |
| COc1cc(O)c2c(=O)cc(-c3ccc(OC)c(-c4c(O)cc(O)c5c(=O)cc(-c6ccc(O)cc6)oc45)c3)oc2c1 [Ginkgetin] | 13 | 16 |  |  |
| C[C@@H]1C(=O)O[C@H]2C[C@@]34[C@H]5C[C@@H](C(C)(C)C)[C@]36[C@@H](OC(=O)[C@@H]6O)O[C@@]4(C(=O)O5)[C@]21O [Ginkgolide A] | 2 | 8 |  |  |
| CC(C)=CCC[C@](C)(O[C@@H]1O[C@H](CO)[C@@H](O)[C@H](O)[C@H]1O)[C@H]1CC[C@]2(C)[C@@H]1[C@H](O)C[C@@H]1[C@@]3(C)CC[C@H](O)C(C)(C)[C@@H]3[C@@H](O)C[C@]12C [Ginsenoside F1] | 10 | 2 |  |  |
| CC(C)=CCC[C@](C)(O[C@@H]1O[C@H](CO)[C@@H](O)[C@H](O)[C@H]1O)[C@H]1CC[C@]2(C)[C@@H]1[C@H](O)C[C@@H]1[C@@]3(C)CC[C@H](O[C@@H]4O[C@H](CO)[C@@H](O)[C@H](O)[C@H]4O)C(C)(C)[C@@H]3CC[C@]12C [Ginsenoside F2] | 0 | 45 |  |  |
| CC(C)=CCC[C@](C)(O[C@@H]1O[C@H](CO[C@@H]2OC[C@H](O)[C@H](O)[C@H]2O)[C@@H](O)[C@H](O)[C@H]1O)[C@H]1CC[C@]2(C)[C@@H]1[C@H](O)C[C@@H]1[C@@]3(C)CC[C@H](O)C(C)(C)[C@@H]3[C@@H](O)C[C@]12C [Ginsenoside F3] | 2 | 34 |  |  |
| CC(C)=CCC[C@](C)(O[C@@H]1O[C@H](CO[C@H]2O[C@H](CO)[C@@H](O)[C@@H]2O)[C@@H](O)[C@H](O)[C@H]1O)[C@H]1CC[C@]2(C)[C@@H]1[C@H](O)C[C@@H]1[C@@]3(C)CC[C@H](O)C(C)(C)[C@@H]3[C@@H](O)C[C@]12C [Ginsenoside F5] | 43 | 17 |  |  |
| CC(C)=CCC[C@](C)(O[C@@H]1O[C@H](CO[C@@H]2O[C@H](CO)[C@@H](O)[C@H](O)[C@H]2O)[C@@H](O)[C@H](O)[C@H]1O)[C@H]1CC[C@]2(C)[C@@H]1[C@H](O)C[C@@H]1[C@@]3(C)CC[C@H](O[C@@H]4O[C@H](CO)[C@@H](O)[C@H](O)[C@H]4O[C@@H]4O[C@H](CO)[C@@H](O)[C@H](O)[C@H]4O)C(C)(C)[C@@H]3CC[C@]12C [Ginsenoside Rb1] | 4 | 0 |  |  |
| CC(C)=CCC[C@](C)(O[C@@H]1O[C@H](CO[C@@H]2OC[C@H](O)[C@H](O)[C@H]2O)[C@@H](O)[C@H](O)[C@H]1O)[C@H]1CC[C@]2(C)[C@@H]1[C@H](O)C[C@@H]1[C@@]3(C)CC[C@H](O[C@@H]4O[C@H](CO)[C@@H](O)[C@H](O)[C@H]4O[C@@H]4O[C@H](CO)[C@@H](O)[C@H](O)[C@H]4O)C(C)(C)[C@@H]3CC[C@]12C [Ginsenoside Rb2] | 7 | 0 |  |  |
| CC(C)=CCC[C@](C)(O[C@@H]1O[C@H](CO[C@@H]2OC[C@@H](O)[C@H](O)[C@H]2O)[C@@H](O)[C@H](O)[C@H]1O)[C@H]1CC[C@]2(C)[C@@H]1[C@H](O)C[C@@H]1[C@@]3(C)CC[C@H](O[C@@H]4O[C@H](CO)[C@@H](O)[C@H](O)[C@H]4O[C@@H]4O[C@H](CO)[C@@H](O)[C@H](O)[C@H]4O)C(C)(C)[C@@H]3CC[C@]12C [Ginsenoside Rb3] | 6 | 1 |  |  |
| CC(C)=CCC[C@](C)(O[C@@H]1O[C@H](CO[C@@H]2O[C@@H](CO)[C@H](O)[C@H]2O)[C@@H](O)[C@H](O)[C@H]1O)[C@H]1CC[C@]2(C)[C@@H]1[C@H](O)C[C@@H]1[C@@]3(C)CC[C@H](O[C@@H]4O[C@H](CO)[C@@H](O)[C@H](O)[C@H]4O[C@@H]4O[C@H](CO)[C@@H](O)[C@H](O)[C@H]4O)C(C)(C)[C@@H]3CC[C@]12C [Ginsenoside Rc] | 0 | 0 |  |  |
| CC(C)=CCC[C@](C)(O[C@@H]1O[C@H](CO)[C@@H](O)[C@H](O)[C@H]1O)[C@H]1CC[C@]2(C)[C@@H]1[C@H](O)C[C@@H]1[C@@]3(C)CC[C@H](O[C@@H]4O[C@H](CO)[C@@H](O)[C@H](O)[C@H]4O[C@@H]4O[C@H](CO)[C@@H](O)[C@H](O)[C@H]4O)C(C)(C)[C@@H]3CC[C@]12C [Ginsenoside Rd] | 4 | 4 |  |  |
| CC(C)=CCC[C@](C)(O[C@@H]1O[C@H](CO)[C@@H](O)[C@H](O)[C@H]1O)[C@H]1CC[C@]2(C)[C@@H]1[C@H](O)C[C@@H]1[C@@]3(C)CC[C@H](O)C(C)(C)[C@@H]3[C@@H](O[C@@H]3O[C@H](CO)[C@@H](O)[C@H](O)[C@H]3O[C@@H]3O[C@@H](C)[C@H](O)[C@@H](O)[C@H]3O)C[C@]12C [Ginsenoside Re] | 0 | 0 |  |  |
| CC(C)=CCC[C@](C)(O)[C@H]1CC[C@]2(C)[C@@H]1[C@H](O)C[C@@H]1[C@@]3(C)CC[C@H](O)C(C)(C)[C@@H]3[C@@H](O[C@@H]3O[C@H](CO)[C@@H](O)[C@H](O)[C@H]3O[C@@H]3O[C@H](CO)[C@@H](O)[C@H](O)[C@H]3O)C[C@]12C [Ginsenoside Rf] | 0 | 0 |  |  |
| CC(C)=CCC[C@](C)(O[C@@H]1O[C@H](CO)[C@@H](O)[C@H](O)[C@H]1O)[C@H]1CC[C@]2(C)[C@@H]1[C@H](O)C[C@@H]1[C@@]3(C)CC[C@H](O)C(C)(C)[C@@H]3[C@@H](O[C@@H]3O[C@H](CO)[C@@H](O)[C@H](O)[C@H]3O)C[C@]12C [Ginsenoside Rg1] | 0 | 0 |  |  |
